From ChEMBL document CHEMBL1157171, “Structure-based virtual screening against SARS-3CL(pro) to identify novel non-peptidic hits” (Bioorg Med Chem, 2008)

Assays:
[1] = target: Replicase polyprotein 1a (Severe acute respiratory syndrome-related coronavirus) (UniProt P0C6U8); assay: Inhibition of human SARS coronavirus 3C like protease at 10 uM
Replicase polyprotein 1a = Replicase polyprotein 1a (Severe acute respiratory syndrome-related coronavirus, UniProt P0C6U8); assay: Inhibition of human SARS coronavirus 3C like protease

Molecule `Cc1cc2cc(CN(CCc3ccccc3C)C(=O)NCc3ccccc3)c(=O)[nH]c2cc1C` has an inhibition [1] of 40% and an IC50 (Replicase polyprotein 1a) of 17.2 µM.
Molecule `O=C(CSc1nc(C2CCCCC2)nc2ccccc12)NCc1ccco1` has an inhibition [1] of 30% and an IC50 (Replicase polyprotein 1a) of 18.2 µM.
